How the values were obtained:
[1] = tested on: L. monocytogenes ATCC 1916; experiment: Growth curve bioactivity assay versus L. monocytogenes ATCC 1916; assay type: cell-based; conditions: 0.5 h, 37 °C, 300 rpm, 0.2 µm PES filtered, growth curve 24 h
Description: An overnight culture of L. monocytogenes ATCC1916 was grown in TSB media supplemented with 6 g/L yeast at 37 °C. Freeze-dried Ltnα and Ltnβ were resuspended individually in 70% IPA to make a 1-mg/ml solution and filtered through a 0.2-µm filter (polyethersulfone) PES filter. They were then diluted in sterile PBS to a final peptide concentration of 50 µg/ml. Peptide solutions were added in triplicate to a 96-well plate with sufficient PBS to give a volume of 50 µl. 150 µl of diluted bacterial cell culture (optical density (OD) of 0.1 at 595 nm) was then added to the wells. Final peptide concentrations of 150 nM (0.50 µg/ml Ltnα, 0.43 µg/ml Ltnβ), 300 nM (0.99 µg/ml Ltnα, 0.85 µg/ml Ltnβ), and 400 nM (1.31 µg/ml Ltnα, 1.14 µg/ml Ltnβ) were obtained when the wells were filled to 200 µl. Blanks were set up in triplicate with media only and PBS only. The three control wells were also set up with bacterial culture and PBS only. The 96-well plate was incubated in a Biotek ELx808 Ultra microplate reader at 37 °C for 24 h. Readings were taken at a wavelength of 590 nm every 30 min for 24 h with the plate shaken mildly before each reading.
An excess quantity of freeze-dried Ltnα and Ltnβ were resuspended individually in PBS buffer/FaSSGF/FaSSIF. The samples were then incubated for 0.5 h at 37 ± 0.5 °C with stirring at 300 rpm. At the end of the incubation period, samples were filtered through a 0.2-µm PES syringe filter and employed in the in vitro activity assay. Briefly, 25 µl of each of the filtered peptide solutions were added in triplicate to the same wells of a 96-well plate. Three control wells were set up containing 50 µl of PBS alone. 150 μl of L. monocytogenes ATCC 1916 with an OD of 0.1 at 595 nm was added to each well. The 96-well plate was then incubated in a Biotek ELx808 Ultra microplate reader at 37 °C for 24 h. The readings were taken as previously described.

[2] = tested on: eukaryotic cells; conditions: cited from earlier work
From the text: Approximately 223,900 C. difficile infections and 12,800 resulting deaths were reported in the USA in 2017 [17]. Treatment failures and recurrences of infection after the use of antibiotics are increasingly common, with a 2–38% failure rate for vancomycin and 8–50% for metronidazole. A more virulent strain of C. d ...

[3] = target: T1, pepsin (Sus scrofa, UniProt P00791); experiment: Enzyme degradation of lacticin 3147 by pepsin (activity, MALDI-TOF, RP-HPLC); assay type: in vitro ADME; conditions: 25 mg/ml pepsin, 3 h, 37 °C, pH 2.29; then growth curve at 400 nM peptides
T1 construct: purchased Sigma-Aldrich Ireland Ltd
T1 sequence (P00791 60-385): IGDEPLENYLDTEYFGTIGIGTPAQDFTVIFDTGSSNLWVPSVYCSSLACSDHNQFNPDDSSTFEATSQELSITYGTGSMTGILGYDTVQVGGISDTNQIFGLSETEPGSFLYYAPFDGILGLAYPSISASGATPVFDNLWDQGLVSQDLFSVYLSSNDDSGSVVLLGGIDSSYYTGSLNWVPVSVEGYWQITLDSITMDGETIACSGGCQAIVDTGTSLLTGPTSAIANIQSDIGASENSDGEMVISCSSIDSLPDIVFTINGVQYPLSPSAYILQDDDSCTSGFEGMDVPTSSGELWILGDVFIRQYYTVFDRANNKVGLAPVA
Description: Lacticin 3147 production was confirmed by matrix-assisted laser desorption ionization-time of flight (MALDI-TOF) mass spectrometry using sinapinic acid as the matrix. About 0.7 μl of the matrix solution (sinapinic acid, 4 mg/ml in 50% acetone/50% methanol) was added to the target plate and left to evaporate (30 s) at ambient conditions. Individual peptides (Ltnα or Ltnβ) were resuspended in 70% IPA and mixed at a 1:1 volume ratio with a 10-mg/ml stock solution of sinapinic acid in 60% ACN with 0.1% TFA. About 0.3 μl of this peptide-matrix solution was then added to the matrix layer previously applied to the plate and evaporated at ambient conditions. The plate was inserted into a MALDI-TOF Ultraflex mass spectrometer (Bruker) and analysed using reflectron positive 700–3500 Da mode. 100 shots were fired at 88% intensity. This method was also used for the analyses of samples from the enzyme degradation studies.
All lacticin 3147 samples were filtered through a 0.2-µm PES filter before analysis by RP-HPLC using an Agilent 1200 Infinity Series HPLC (Agilent Technologies, USA). The HPLC separations were carried out on an Aeris 3.6 µm Peptide 100 Å 250 × 4.6 mm, liquid chromatography column with a flow rate of 0.8 ml/min, and with 0.1% trifluoroacetic acid (TFA) in water as aqueous phase-A and 0.1% TFA in acetonitrile (ACN) as organic phase-B. The total run time was 51 min. The mobile phase started with 30:70 A:B for 3 min and change linearly to 35:65 A:B over 30 min. The organic phase was then adjusted to 100% within 1 min and continued to flow for 5 min. After this, the mobile phase returned to the initial ratio to stabilize the chromatographic system. The detector was set at 214 nm. The peak area (mAU) was plotted against the concentration (1.56–500 µg/ml) to make a calibration curve. The coefficients of determination (R^2 values) were 0.9963 and 0.9983 for Ltnα and Ltnβ respectively. This method was subsequently used for quantitative analysis of Ltnα and Ltnβ.
Trypsin and α-chymotrypsin stock solutions (50 mg/ml) were resuspended in water. Pepsin (50 mg/ml) was resuspended in 0.02 M HCL. About 1 mg/ml individual solutions of Ltnα and Ltnβ in 70% IPA were filtered and diluted (1 in 20) in sterile PBS to give a final peptide concentration of 50 µg/ml. After this, 5.3 µl Ltnα and 4.6 µl Ltnβ were added to the same well of a 96-well plate. The pH of the lacticin 3147-pepsin solution was 2.29. Control wells consisting of Ltnα and Ltnβ together, Ltnα alone, and Ltnβ alone with no enzyme were included. The 96-well plate was incubated for 3 h at 37 °C to allow the enzyme to act. After incubation, the wells were filled to 50 μl with PBS and 150 μl of diluted bacterial cell culture (L. monocytogenes at an OD of 0.1) was added to each well. The final peptide concentration of 400 nM (1.31 µg/ml Ltnα, 1.14 µg/ml Ltnβ) was obtained when the wells were filled to 200 µl. Blanks were set up in triplicate with media only and PBS only. The three control wells were also set up with bacterial culture and each enzyme only. […] The effect of the proteases pepsin, α-chymotrypsin, and trypsin on the lacticin 3147 peptides was determined by MALDI-TOF mass spectrometry. […] After 3 h, 1 µl was removed from each sample and it was analysed by MALDI-TOF mass spectrometry. […]
Pepsin’s effect on lacticin 3147 was also investigated by RP-HPLC. […] After incubation, aliquots were taken, filtered, and analysed by RP-HPLC to determine if pepsin degrades Ltnα or Ltnβ to any extent.

lacticin 3147
activity against L. monocytogenes ATCC 1916 after addition in excess to FaSSGF and filtration ([1]; FaSSGF (pH 1.6)): active
activity against L. monocytogenes ATCC 1916 after addition in excess to FaSSIF and filtration ([1]; FaSSIF (pH 6.5)): active
activity against L. monocytogenes ATCC 1916 after addition in excess to PBS and filtration ([1]; PBS (pH 7.4)): active
toxicity to eukaryotic cells [2]: non-toxic
activity against L. monocytogenes ATCC 1916 after incubation with pepsin [3]: remains active
